Reference: ChEMBL document CHEMBL3244295, “A ureido group containing analogue of oxytocin comprising eight amino acid residues” (J Med Chem, 1978)
Residues, ends and D or L forms follow the SMILES beside them.

Tests used:
[1] = Uterotonic activity in virgin rat uterus; assay type: functional
[2] = Uterotonic activity in virgin rat uterus relative to oxytocin; assay type: functional
[3] = molecular target: T1, Oxytocin-like receptor (Gallus gallus, UniProt Q5D7U5); test: Antagonist activity at oxytocin receptor in conscious chicken assessed as inhibition of oxytocin-induced vaspdepressor response; conditions: read-out: pA2 (converted)
T1 sequence (Q5D7U5 whole entry): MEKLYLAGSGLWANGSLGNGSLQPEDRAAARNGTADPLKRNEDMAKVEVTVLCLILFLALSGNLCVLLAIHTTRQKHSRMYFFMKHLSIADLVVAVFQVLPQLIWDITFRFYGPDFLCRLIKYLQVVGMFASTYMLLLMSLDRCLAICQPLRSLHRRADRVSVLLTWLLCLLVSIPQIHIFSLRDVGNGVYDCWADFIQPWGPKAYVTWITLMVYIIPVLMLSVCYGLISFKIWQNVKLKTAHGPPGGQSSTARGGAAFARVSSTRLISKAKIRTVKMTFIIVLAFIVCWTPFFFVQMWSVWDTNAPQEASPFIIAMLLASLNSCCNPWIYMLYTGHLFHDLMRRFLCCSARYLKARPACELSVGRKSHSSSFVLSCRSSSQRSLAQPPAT

[4] = test system: Rattus norvegicus; test: Antidiuretic activity in anesthetized rat assessed per mg; assay type: functional, Urine

[H][C@@]1([C@@H](C)CC)NC(=O)[C@H](Cc2ccc(O)cc2)NC(=O)NCCCC[C@@H](C(=O)N2CCC[C@H]2C(=O)N[C@@H](CC(C)C)C(=O)NCC(N)=O)NC(=O)[C@H](CC(N)=O)NC(=O)[C@H](CCC(N)=O)NC1=O (HELM PEPTIDE1{Y.I.Q.N.K.P.L.G.[am]}|CHEM1{[O=C([*:1])[*:2]]}$PEPTIDE1,CHEM1,1:R1-1:R1|PEPTIDE1,CHEM1,5:R3-1:R2$$$V2.0)
Activity [1]: 3.9 U/mg
Activity [2]: 0.8%
Kb [3]: 53.7 nM
Activity [4]: <0.05 U

CC[C@H](C)[C@@H]1NC(=O)[C@H](Cc2ccc(O)cc2)NC(=O)[C@@H](N)C(C)(C)SSC[C@@H](C(=O)N2CCC[C@H]2C(=O)N[C@@H](CC(C)C)C(=O)NCC(N)=O)NC(=O)[C@H](CC(N)=O)NC(=O)[C@H](CCC(N)=O)NC1=O
Kb [3]: 31.6 nM
